Values quoted from earlier work as cited in patent publication US20180162913A1, “METHODS FOR PO[…] IMMUNE RESPONSE USING DEPOT-FORMING AND NON-DEPOT-FORMING VACCINES” (IMMUNOVACCINE TECHNOLOGIES INC., priority 2015, published 2018).

Compound: O=P1(N(CCCl)CCCl)NCCCO1 (stereo not drawn) [Cyclophosphamide (CPA), N,N-bis(2-chloroethyl)-1,3,2-oxazaphosphinan-2-amine 2-oxide]
- bioavailability, intravenous infusion versus parenteral and oral administration (in vivo): little difference in bioavailability
- Total systemic clearance of CPA and its metabolites (patients): 5 to 9 h
- peak plasma levels of the parent, variation between patients (patients): 3 to 11 h
